# From PubChem BioAssay (NCI)
#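 Five concentrations, 48 hours, 96-well plates. TGI denotes the concentration required for complete inhibition of growth.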
# Legend:
# Test in all cases: growth of human tumour cells (NCI), 48 h
# 786-0 renal = test system: 786-0 renal
# A498 renal = test system: A498 renal
# A549 NSCLC = test system: A549 NSCLC
# ACHN renal = test system: ACHN renal
# CAKI-1 renal = test system: CAKI-1 renal
# CCRF-CEM leukemia = test system: CCRF-CEM leukemia
# COLO 205 colon = test system: COLO 205 colon
# DLD-1 colon = test system: DLD-1 colon
# DMS 114 small cell lung = test system: DMS 114 small cell lung
# EKVX NSCLC = test system: EKVX NSCLC
# HCC-2998 colon = test system: HCC-2998 colon
# HCT-116 colon = test system: HCT-116 colon
# HCT-15 colon = test system: HCT-15 colon
# HL-60(TB) leukemia = test system: HL-60(TB) leukemia
# HOP-18 NSCLC = test system: HOP-18 NSCLC
# HOP-62 NSCLC = test system: HOP-62 NSCLC
# HOP-92 NSCLC = test system: HOP-92 NSCLC
# HT29 colon = test system: HT29 colon
# IGROV1 ovarian = test system: IGROV1 ovarian
# K-562 leukemia = test system: K-562 leukemia
# KM12 colon = test system: KM12 colon
# KM20L2 colon = test system: KM20L2 colon
# LOX IMVI melanoma = test system: LOX IMVI melanoma
# LXFL 529 NSCLC = test system: LXFL 529 NSCLC
# M14 melanoma = test system: M14 melanoma
# M19-MEL melanoma = test system: M19-MEL melanoma
# MALME-3M melanoma = test system: MALME-3M melanoma
# MOLT-4 leukemia = test system: MOLT-4 leukemia
# NCI-H226 lung = test system: NCI-H226 lung
# NCI-H23 lung = test system: NCI-H23 lung
# NCI-H460 lung = test system: NCI-H460 lung
# NCI-H522 lung = test system: NCI-H522 lung
# OVCAR-3 ovarian = test system: OVCAR-3 ovarian
# OVCAR-4 ovarian = test system: OVCAR-4 ovarian
# OVCAR-5 ovarian = test system: OVCAR-5 ovarian
# OVCAR-8 ovarian = test system: OVCAR-8 ovarian
# RPMI-8226 leukemia = test system: RPMI-8226 leukemia
# RXF 393 renal = test system: RXF 393 renal
# RXF-631 renal = test system: RXF-631 renal
# SF-268 CNS = test system: SF-268 CNS
# SF-295 CNS = test system: SF-295 CNS
# SF-539 CNS = test system: SF-539 CNS
# SK-MEL-28 melanoma = test system: SK-MEL-28 melanoma
# SK-MEL-5 melanoma = test system: SK-MEL-5 melanoma
# SK-OV-3 ovarian = test system: SK-OV-3 ovarian
# SN12C renal = test system: SN12C renal
# SNB-19 CNS = test system: SNB-19 CNS
# SNB-75 CNS = test system: SNB-75 CNS
# SNB-78 CNS = test system: SNB-78 CNS
# SR leukemia = test system: SR leukemia
# SW-620 colon = test system: SW-620 colon
# TK-10 renal = test system: TK-10 renal
# U251 CNS = test system: U251 CNS
# UACC-257 melanoma = test system: UACC-257 melanoma
# UACC-62 melanoma = test system: UACC-62 melanoma
# UO-31 renal = test system: UO-31 renal
# DMS 273 small cell lung = test system: DMS 273 small cell lung
# SK-MEL-2 melanoma = test system: SK-MEL-2 melanoma
# XF 498 CNS = test system: XF 498 CNS
compound,measurement,setting,value
O=S1(=O)COc2ccccc2-c2ncncc21,TGI,786-0 renal,> 100 µM
same,TGI,A498 renal,> 100 µM
same,TGI,A549 NSCLC,> 100 µM
same,TGI,ACHN renal,> 100 µM
same,TGI,CAKI-1 renal,> 100 µM
same,TGI,CCRF-CEM leukemia,> 100 µM
same,TGI,COLO 205 colon,> 100 µM
same,TGI,DLD-1 colon,> 100 µM
same,TGI,DMS 114 small cell lung,> 100 µM
same,TGI,EKVX NSCLC,> 100 µM
same,TGI,HCC-2998 colon,> 100 µM
same,TGI,HCT-116 colon,> 100 µM
same,TGI,HCT-15 colon,> 100 µM
same,TGI,HL-60(TB) leukemia,> 100 µM
same,TGI,HOP-18 NSCLC,> 100 µM
same,TGI,HOP-62 NSCLC,> 100 µM
same,TGI,HOP-92 NSCLC,> 100 µM
same,TGI,HT29 colon,> 100 µM
same,TGI,IGROV1 ovarian,> 100 µM
same,TGI,K-562 leukemia,> 100 µM
same,TGI,KM12 colon,> 100 µM
same,TGI,KM20L2 colon,> 100 µM
same,TGI,LOX IMVI melanoma,> 100 µM
same,TGI,LXFL 529 NSCLC,> 100 µM
same,TGI,M14 melanoma,> 100 µM
same,TGI,M19-MEL melanoma,> 100 µM
same,TGI,MALME-3M melanoma,> 100 µM
same,TGI,MOLT-4 leukemia,> 100 µM
same,TGI,NCI-H226 lung,> 100 µM
same,TGI,NCI-H23 lung,> 100 µM
same,TGI,NCI-H460 lung,> 100 µM
same,TGI,NCI-H522 lung,> 100 µM
same,TGI,OVCAR-3 ovarian,> 100 µM
same,TGI,OVCAR-4 ovarian,> 100 µM
same,TGI,OVCAR-5 ovarian,> 100 µM
same,TGI,OVCAR-8 ovarian,> 100 µM
same,TGI,RPMI-8226 leukemia,> 100 µM
same,TGI,RXF 393 renal,> 100 µM
same,TGI,RXF-631 renal,> 100 µM
same,TGI,SF-268 CNS,> 100 µM
same,TGI,SF-295 CNS,> 100 µM
same,TGI,SF-539 CNS,> 100 µM
same,TGI,SK-MEL-28 melanoma,> 100 µM
same,TGI,SK-MEL-5 melanoma,> 100 µM
same,TGI,SK-OV-3 ovarian,> 100 µM
same,TGI,SN12C renal,> 100 µM
same,TGI,SNB-19 CNS,> 100 µM
same,TGI,SNB-75 CNS,> 100 µM
same,TGI,SNB-78 CNS,> 100 µM
same,TGI,SR leukemia,> 100 µM
same,TGI,SW-620 colon,> 100 µM
same,TGI,TK-10 renal,> 100 µM
same,TGI,U251 CNS,> 100 µM
same,TGI,UACC-257 melanoma,> 100 µM
same,TGI,UACC-62 melanoma,> 100 µM
same,TGI,UO-31 renal,> 100 µM
COC(=O)C(C(=O)C(=O)Nc1c(Cl)cc([N+](=O)[O-])cc1Cl)c1nc2cc(C)c(C)cc2[nH]c1=O (stereo unspecified),TGI,786-0 renal,> 100 µM
same,TGI,A498 renal,> 100 µM
same,TGI,A549 NSCLC,> 100 µM
same,TGI,ACHN renal,> 100 µM
same,TGI,CAKI-1 renal,> 100 µM
same,TGI,CCRF-CEM leukemia,> 100 µM
same,TGI,COLO 205 colon,> 100 µM
same,TGI,DLD-1 colon,> 100 µM
same,TGI,DMS 114 small cell lung,> 100 µM
same,TGI,DMS 273 small cell lung,> 100 µM
same,TGI,EKVX NSCLC,> 100 µM
same,TGI,HCC-2998 colon,> 100 µM
same,TGI,HCT-116 colon,> 100 µM
same,TGI,HCT-15 colon,> 100 µM
same,TGI,HL-60(TB) leukemia,> 100 µM
same,TGI,HOP-18 NSCLC,> 100 µM
same,TGI,HOP-62 NSCLC,> 100 µM
same,TGI,HOP-92 NSCLC,> 100 µM
same,TGI,HT29 colon,> 100 µM
same,TGI,IGROV1 ovarian,> 100 µM
same,TGI,K-562 leukemia,> 100 µM
same,TGI,KM12 colon,> 100 µM
same,TGI,KM20L2 colon,> 100 µM
same,TGI,LOX IMVI melanoma,> 100 µM
same,TGI,LXFL 529 NSCLC,> 100 µM
same,TGI,M14 melanoma,> 100 µM
same,TGI,M19-MEL melanoma,> 100 µM
same,TGI,MALME-3M melanoma,> 100 µM
same,TGI,MOLT-4 leukemia,> 100 µM
same,TGI,NCI-H226 lung,> 100 µM
same,TGI,NCI-H23 lung,> 100 µM
same,TGI,NCI-H460 lung,> 100 µM
same,TGI,NCI-H522 lung,> 100 µM
same,TGI,OVCAR-3 ovarian,> 100 µM
same,TGI,OVCAR-4 ovarian,> 100 µM
same,TGI,OVCAR-5 ovarian,> 100 µM
same,TGI,OVCAR-8 ovarian,> 100 µM
same,TGI,RPMI-8226 leukemia,> 100 µM
same,TGI,RXF 393 renal,> 100 µM
same,TGI,RXF-631 renal,> 100 µM
same,TGI,SF-268 CNS,> 100 µM
same,TGI,SF-295 CNS,> 100 µM
same,TGI,SF-539 CNS,> 100 µM
same,TGI,SK-MEL-2 melanoma,> 100 µM
same,TGI,SK-OV-3 ovarian,> 100 µM
same,TGI,SN12C renal,> 100 µM
same,TGI,SNB-19 CNS,> 100 µM
same,TGI,SNB-75 CNS,> 100 µM
same,TGI,SNB-78 CNS,> 100 µM
same,TGI,SW-620 colon,> 100 µM
same,TGI,TK-10 renal,> 100 µM
same,TGI,U251 CNS,> 100 µM
same,TGI,UACC-257 melanoma,> 100 µM
same,TGI,UACC-62 melanoma,> 100 µM
same,TGI,UO-31 renal,> 100 µM
Cn1c(O)c(C=N)c(=O)n(C)c1=O,TGI,786-0 renal,> 100 µM
same,TGI,A549 NSCLC,> 100 µM
same,TGI,ACHN renal,> 100 µM
same,TGI,CAKI-1 renal,> 100 µM
same,TGI,CCRF-CEM leukemia,> 100 µM
same,TGI,DLD-1 colon,> 100 µM
same,TGI,DMS 114 small cell lung,> 100 µM
same,TGI,EKVX NSCLC,> 100 µM
same,TGI,HCC-2998 colon,> 100 µM
same,TGI,HCT-15 colon,> 100 µM
same,TGI,HL-60(TB) leukemia,> 100 µM
same,TGI,HOP-18 NSCLC,> 100 µM
same,TGI,HOP-92 NSCLC,> 100 µM
same,TGI,HT29 colon,> 100 µM
same,TGI,K-562 leukemia,> 100 µM
same,TGI,KM12 colon,> 100 µM
same,TGI,KM20L2 colon,> 100 µM
same,TGI,LOX IMVI melanoma,> 100 µM
same,TGI,M14 melanoma,> 100 µM
same,TGI,M19-MEL melanoma,> 100 µM
same,TGI,MALME-3M melanoma,> 100 µM
same,TGI,MOLT-4 leukemia,> 100 µM
same,TGI,NCI-H226 lung,> 100 µM
same,TGI,NCI-H23 lung,> 100 µM
same,TGI,NCI-H460 lung,> 100 µM
same,TGI,NCI-H522 lung,> 100 µM
same,TGI,OVCAR-3 ovarian,> 100 µM
same,TGI,OVCAR-4 ovarian,> 100 µM
same,TGI,OVCAR-5 ovarian,> 100 µM
same,TGI,OVCAR-8 ovarian,> 100 µM
same,TGI,RPMI-8226 leukemia,> 100 µM
same,TGI,RXF 393 renal,> 100 µM
same,TGI,SF-268 CNS,> 100 µM
same,TGI,SF-295 CNS,> 100 µM
same,TGI,SK-MEL-2 melanoma,> 100 µM
same,TGI,SK-MEL-28 melanoma,> 100 µM
same,TGI,SK-MEL-5 melanoma,> 100 µM
same,TGI,SN12C renal,> 100 µM
same,TGI,SNB-19 CNS,> 100 µM
same,TGI,SNB-75 CNS,> 100 µM
same,TGI,SNB-78 CNS,> 100 µM
same,TGI,SR leukemia,> 100 µM
same,TGI,SW-620 colon,> 100 µM
same,TGI,TK-10 renal,> 100 µM
same,TGI,U251 CNS,> 100 µM
same,TGI,UACC-257 melanoma,> 100 µM
same,TGI,UO-31 renal,> 100 µM
same,TGI,XF 498 CNS,> 100 µM
Cn1nc(-c2ccccc2)c(C(=O)/C=C/c2ccccc2)c(N2CCCCC2)c1=O,TGI,786-0 renal,> 100 µM
same,TGI,A549 NSCLC,> 100 µM
same,TGI,ACHN renal,> 100 µM
same,TGI,CAKI-1 renal,60.1 µM
same,TGI,CCRF-CEM leukemia,> 100 µM
same,TGI,COLO 205 colon,> 100 µM
same,TGI,DLD-1 colon,> 100 µM
same,TGI,DMS 114 small cell lung,> 100 µM
same,TGI,DMS 273 small cell lung,> 100 µM
same,TGI,EKVX NSCLC,> 100 µM
same,TGI,HCT-116 colon,> 100 µM
same,TGI,HCT-15 colon,> 100 µM
same,TGI,HL-60(TB) leukemia,12.3 µM
same,TGI,HOP-18 NSCLC,> 100 µM
same,TGI,HOP-62 NSCLC,42.8 µM
same,TGI,HOP-92 NSCLC,86.7 µM
same,TGI,HT29 colon,69 µM
same,TGI,IGROV1 ovarian,> 100 µM
same,TGI,K-562 leukemia,> 100 µM
same,TGI,KM20L2 colon,> 100 µM
same,TGI,LOX IMVI melanoma,> 100 µM
same,TGI,LXFL 529 NSCLC,> 100 µM
same,TGI,M14 melanoma,> 100 µM
same,TGI,MOLT-4 leukemia,> 100 µM
same,TGI,NCI-H23 lung,> 100 µM
same,TGI,NCI-H460 lung,> 100 µM
same,TGI,NCI-H522 lung,> 100 µM
same,TGI,OVCAR-8 ovarian,> 100 µM
same,TGI,RXF 393 renal,73.1 µM
same,TGI,RXF-631 renal,> 100 µM
same,TGI,SF-268 CNS,> 100 µM
same,TGI,SF-539 CNS,> 100 µM
same,TGI,SK-MEL-28 melanoma,62.8 µM
same,TGI,SK-MEL-5 melanoma,> 100 µM
same,TGI,SK-OV-3 ovarian,> 100 µM
same,TGI,SN12C renal,> 100 µM
same,TGI,SNB-19 CNS,> 100 µM
same,TGI,SW-620 colon,> 100 µM
same,TGI,TK-10 renal,> 100 µM
same,TGI,U251 CNS,> 100 µM
same,TGI,UACC-62 melanoma,> 100 µM
same,TGI,UO-31 renal,> 100 µM
